# Laboratory results from US9315475B2 (MERCK SHARP & DOHME CORP., priority 2011, dated 2016).
# Tests used:
# HIV = conditions: HIV-infected patients, in combination with nucleoside reverse transcriptase inhibitors; cited from earlier work
# wildtype HIV-1 protease = target: T1, wildtype HIV-1 protease (Human immunodeficiency virus type 1 group M subtype B, UniProt P04585); test: Assay for inhibition of microbial expressed HIV protease (Pepcleav); type: biochemical; conditions: wild type HIV-1 protease expressed in E. coli, peptide substrate, pH 5.5; mean of at least two independent experiments; read-out: Pepcleav
# T1 construct: the wildtype HIV-1 protease (which was expressed in Escherichia coli); made in house; host or cells: Escherichia coli
# Method in brief: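 E. coli-expressed wild-type HIV-1 protease (20 pM) preincubated 30 min at room temperature with inhibitor in pH 5.5 sodium acetate/NaCl/BSA buffer, then 400 μM Val-Ser-Gln-Asn-(βnaphthyl)Ala-Pro-Ile-Val added for 1 h at 30 °C. Quenched with formic acid; product quantified by LC-MS/MS peak area, indinavir internal standard.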
# HIV-1 (H9IIIB strain) = test: Antiviral acute infection assay in cell culture (Spread); type: cell-based; conditions: Human immunodeficiency virus 1, T-lymphoid, HIV-1 H9IIIB infection of MT-4 human T-lymphoid cells in 10% FBS; mean of at least two independent experiments
# Excerpt: Antiviral Assays in Cell Culture (“Spread”)
# Acute Infection Assay (“Spread”) data were generated using HIV-1 (H9IIIB strain) infection of MT-4 human T-lymphoid cells in 10% FBS, and according to the methods disclosed by J. P. Vacca et al, “L-735,524: An orally bioavailable human immunodeficiency virus type 1 protease inhibitor,” Proc. Natl. Acad. Sci. USA, Vol. 91, pp. 4096-4100 (April 1994).
SMILES,effect on HIV viral loads and CD4 cell counts (HIV),IC50 (wildtype HIV-1 protease) [nM],EC50 (HIV-1 (H9IIIB strain)) [nM]
"CC(C)(C)NC(=O)[C@@H]1CN(Cc2cccnc2)CCN1C[C@@H](O)C[C@@H](Cc1ccccc1)C(=O)N[C@H]1c2ccccc2C[C@H]1O [Indinavir, indinavir]",highly effective in reducing HIV viral loads and increasing CD4 cell counts,,
"CN[C@H](C(=O)Nc1cncc(F)c1CC[C@@H]1CN[C@H](COC(=O)NCC(F)(F)F)CO1)C(c1ccc(F)cc1)c1ccc(F)cc1 [Example 202, 4-fluoro-β-(4-fluorophenyl)-N-(5-fluoro-4-{2-[(2R,5S)-5-({[(2,2,2-trifluoroethyl)carbamoyl]oxy}methyl)morpholin-2-yl]ethyl}pyridin-3-yl)-Nα-methyl-L-phenylalaninamide]",,28,65
